Columns and labels:
Type in all cases: functional
Rattus norvegicus [1] = organism: Rattus norvegicus; experiment: In vitro Inhibitory activity against prolactin release in anterior pituitary from adult female rats(Charles Rivers Labs) at a concentration of 2*10e-8M
Rattus norvegicus [2] = experiment: In vitro Weight change in anterior pituitary after the administration of the compound
Rattus norvegicus [3] = organism: Rattus norvegicus; experiment: In vitro Inhibitory activity against prolactin release in anterior pituitary from adult female rats(Charles Rivers Labs), at a concentration of 2*10e-7M
Rattus norvegicus [4] = organism: Rattus norvegicus; experiment: Percent decrease in serum prolactin concentration in male rats

SMILES: NCCc1ccc(O)c(O)c1 [DOPAMINE]
- Prolactin release rate (Rattus norvegicus [1]): 355 ng/mg/h

SMILES: C[n+]1cccc(C(=O)NCCc2ccc(O)c(O)c2)c1.[I-]
- Weight change of AP-S (Rattus norvegicus [2]): 4.7 mg
- Prolactin release rate (Rattus norvegicus [3]): 277 ng/mg/h
- Prolactin release rate (Rattus norvegicus [1]): 386 ng/mg/h
- Decrease (Rattus norvegicus [4]): 67%

SMILES: CN1C=CCC(C(=O)NCCc2ccc(OC(=O)C(C)(C)C)c(OC(=O)C(C)(C)C)c2)=C1
- Decrease (Rattus norvegicus [4]): 79%
